In article PMC8585690 (Toxicology, 2021):
Values joined by “and” are separate entries in the source; they are usually repeats but may differ in a detail not shown here. Equal values may be shown once. Read-outs that look alike come from different tables or passages of the source. Values belong to the compound of their own block, whether it stands above or below them.

Assays:
plasma protein = conditions: cited from earlier work; for plasma free fraction, previously reported measurement: ref Sakolish et al. 2021; for Fub, plasma: representative range of literature-reported values, ref see Methods
Hepatocyte = conditions: metabolizing enzymes and conjugation pathways; cited from earlier work
[1] = cited from earlier work; for estimated clearance: ref Kadam et al. 2013
[2] = Literature-based in vivo clinical clearance, AUC and bioavailability; conditions: for mean oral clearance of available literature values: mean across studies, no further adjustment; for bioavailability: in vivo
[3] = test system: primary human hepatocytes or human iPSC-derived hepatocytes; conditions: for underprediction of clearance by LAMPS compared to in vivo: Day 1 (24 hr) clearance vs in vivo intrinsic clearance
[4] = test system: primary human hepatocytes or human iPSC-derived hepatocytes; test: Hepatic clearance in monolayer culture; type: in vitro ADME; conditions: 2D culture; in most cases primary cells exhibited greater clearance
[5] = test system: primary human hepatocytes or human iPSC-derived hepatocytes; conditions: as previously reported; ref Sakolish et al. 2021; cited from earlier work
[6] = Plasma protein binding / plasma free fraction; type: in vitro ADME; conditions: human
[7] = test system: microphysiological system; conditions: ref Marin et al. (2019); cited from earlier work

Compound: Cn1c(=O)c2c(ncn2C)n(C)c1=O [Caffeine]
- plasma free fraction (plasma protein; equilibrium dialysis, ref Lelo et al. 1986): 0.68
- plasma free fraction, previously reported measurement (plasma protein): 0.515
- Plasma protein binding, % free (plasma protein; summary of Table 1 values): > 50 % free
- Hepatocyte metabolism (Hepatocyte): CYPA2, xanthine oxidase, or N-acetyltransferase 2
- oral clearance ([1]; human, ref Lelo et al. 1986): 2.07 mL/min/kg
- oral clearance converted using 70 kg body weight ([2]; human, from ref Lelo et al. 1986): 8.7 L/h
- in vitro intrinsic clearance as a function of time ([3]; 10-day experimental period, all four model systems (2D and 3D, primary and iPSC-derived hepatocytes)): decline in clearance was also observed
- underprediction of clearance by LAMPS compared to in vivo [3]: < 5 fold

Compound: CC(C)(C)c1ccc(C(O)CCCN2CCC(C(O)(c3ccccc3)c3ccccc3)CC2)cc1 (stereo not shown) [Terfenadine]
- free fraction (plasma protein; by ultrafiltration, ref Awni et al. 1997): 0.003
- plasma free fraction, previously reported measurement (plasma protein): 0.0219
- Fub, plasma (plasma protein): 0.003-0.022
- free fraction (plasma protein; source cited was a review, ref McTavish et al. 1990): 0.03
- AUC ([1]; 60 mg dose, ref Bergstrom et al. 1997): 24.6 ng·h/mL
- AUC ([1]; 120 mg dose, ref Stern et al. 1998): 20.14 ng·h/mL

Compound: N[C@@H]1[C@H]2CN(c3nc4c(cc3F)c(=O)c(C(=O)O)cn4-c3ccc(F)cc3F)C[C@@H]12 [Trovafloxacin]
- free fraction in serum (plasma protein; by equilibrium dialysis, ref Teng et al. 1995, Teng et al. 1996): 0.3 and 0.238
- Hepatocyte metabolism (Hepatocyte): N-Acetylation, and conjugation with glucuronic acid
- AUC ([1]; iv, 200 mg equivalent, ref Vincent et al. 1998): 22000 ng·h/mL
- AUC ([1]; oral, 200 mg equivalent, ref Vincent et al. 1998): 32200 ng·h/mL
- bioavailability ([2]; human, oral, 200 mg equivalent): > 100%
- toxicity indicated by lactate dehydrogenase (LDH) and TNF-alpha release [5]: most toxic

Compound: CC(=O)Nc1ccc(O)cc1 [acetaminophen]
- half-life in the microphysiological system as compared to in vivo [7]: 6 fold

More lines, main results first:

- mean oral clearance of available literature values ([2]; human, oral): 3.02 L/h
- mean oral clearance adjusted for absorption ([2]; human, oral, mean of all available values, adjusted for incomplete absorption): 2.51 L/h
- oral clearance converted using 70 kg body weight ([2]; human, from ref Eckland and Danhof 2000): 2.66 L/h and 3.7 L/h and 3.35 L/h
- underprediction of clearance by LAMPS compared to in vivo [3]: < 5 fold
Compound: CCc1ccc(CCOc2ccc(CC3SC(=O)NC3=O)cc2)nc1 (stereo not shown) [Pioglitazone]
- plasma free fraction (plasma protein; ref Eckland and Danhof 2000): < 0.03
- plasma free fraction, previously reported measurement (plasma protein): 0.0441
- Fub, plasma (plasma protein): 0.008-0.04
- Hepatocyte metabolism (Hepatocyte): CYP2C8, CYP3A4, and conjugation with sulfate or glucuronic acid
- estimated clearance ([1]; "wild type" individuals): 2.12 L/h
- estimated clearance ([1]; CYP2C8*3 carrier): 3.21 L/h
- oral clearance ([1]; human, ref Eckland and Danhof 2000): 0.633 mL/min/kg and 0.882 mL/min/kg and 0.797 mL/min/kg
- absorption ([1]; ref Eckland and Danhof 2000): 83%
- daily AUC ([1]; repeat dose, ref Budde et al. 2003): 14,565 ug-hr/l
- AUC ([1]; single dose of 45 mg, ref Budde et al. 2003): 17,387 ug-hr/l

- bioavailability ([2]; human, oral, 8 mg): 98%
- mean oral clearance of available literature values ([2]; human, oral): 2.85 L/h
Compound: CN(CCOc1ccc(CC2SC(=O)NC2=O)cc1)c1ccccn1 (stereo not shown) [Rosiglitazone]
- free fraction (plasma protein; by ultrafiltration, ref Chapelsky et al. 2003): 0.0016
- plasma free fraction, previously reported measurement (plasma protein): 0.0038
- Fub, plasma (plasma protein): 0.0016-0.036
- Hepatocyte metabolism (Hepatocyte): CYP2C8, CYP2C9, N-demethylation, and conjugation with sulfate or glucuronic acid
- oral clearance ([1]; human, ref Chapelsky et al. 2003): 3.07 L/h
- AUC ([1]; i.v. dose of 2 mg, ref Cox et al. 2000): 744 ng·h/mL
- AUC ([1]; oral dose of 8 mg, ref Cox et al. 2000): 2,900 ng-hr/ml and 2,930 ng-hr/ml
- parent compound in feces ([1]; radioactivity detected in feces, ref Cox et al. 2000): no parent compound was detected

- clearance in primary cells versus iPSC-derived hepatocytes [4]: the opposite was true
- CL/F adjusted for oral absorption ([2]; 11.43*0.68, from ref Jorga et al. 1998): 7.8 L/h
- bioavailability ([2]; human, oral): 62%
Compound: Cc1ccc(C(=O)c2cc(O)c(O)c([N+](=O)[O-])c2)cc1 [Tolcapone]
- unbound fraction (plasma protein; no source cited, ref Jorga et al. 1998): < 0.001
- bound (plasma protein; ref Jorga et al. 1998): > 99.9%
- plasma free fraction, previously reported measurement (plasma protein): 0.002
- Fub, plasma (plasma protein): <0.001-0.029
- Hepatocyte metabolism (Hepatocyte): Conjugation with glucuronic acid
- i.v. clearance ([1]; ref Jorga et al. 1998): 7.1 L/h
- oral clearance ([1]; ref Jorga et al. 1998): 11.43 L/h
- toxicity indicated by lactate dehydrogenase (LDH) and TNF-alpha release [5]: most toxic

- fraction unbound [6]: 0.017
- oral clearance converted to ([2]; from ref Loi et al. 1997): 33.5 L/h
- oral clearance converted to ([2]; from ref Loi et al. 1999): 29.8 L/h and 30 L/h and 36 L/h
- mean oral clearance of available literature values ([2]; human, oral): 36.8 L/h
Compound: Cc1c(C)c2c(c(C)c1O)CCC(C)(COc1ccc(CC3SC(=O)NC3=O)cc1)O2 (stereo not shown) [Troglitazone]
- mean unbound fraction (plasma protein; by ultrafiltration, non-detects (one-third of subjects) not included, ref Ott et al. 1998): 0.026
- plasma free fraction, previously reported measurement (plasma protein): 0.008
- Fub, plasma (plasma protein): 0.0009-0.017
- Hepatocyte metabolism (Hepatocyte): CYP3A4, and conjugation with sulfate or glucuronic acid
- AUC ([1]; oral dose of 400 mg, ref Ott et al. 1998): 7300 ng·h/mL
- oral clearance ([1]; ref Loi et al. 1997): 33.5 L/h
- oral clearance ([1]; three values, ref Loi et al. 1999): 30 L/h and 36.1 L/h and 29.8 L/h
